One assay deals with T1, Caspase-3 (Homo sapiens, UniProt P42574).
T1 sequence (P42574 whole entry): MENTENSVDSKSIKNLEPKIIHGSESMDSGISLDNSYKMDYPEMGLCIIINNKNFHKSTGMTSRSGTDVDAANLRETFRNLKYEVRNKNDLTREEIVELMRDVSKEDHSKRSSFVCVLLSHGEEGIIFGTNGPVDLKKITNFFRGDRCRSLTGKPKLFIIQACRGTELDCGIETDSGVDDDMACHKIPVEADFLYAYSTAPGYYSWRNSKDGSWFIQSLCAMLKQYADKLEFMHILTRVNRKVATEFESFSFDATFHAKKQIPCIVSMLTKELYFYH
The assay is classed as functional.

Assay [1] concerns the target T2, Tyrosyl-DNA phosphodiesterase 2 (Homo sapiens, UniProt O95551).
T2 sequence (O95551 whole entry): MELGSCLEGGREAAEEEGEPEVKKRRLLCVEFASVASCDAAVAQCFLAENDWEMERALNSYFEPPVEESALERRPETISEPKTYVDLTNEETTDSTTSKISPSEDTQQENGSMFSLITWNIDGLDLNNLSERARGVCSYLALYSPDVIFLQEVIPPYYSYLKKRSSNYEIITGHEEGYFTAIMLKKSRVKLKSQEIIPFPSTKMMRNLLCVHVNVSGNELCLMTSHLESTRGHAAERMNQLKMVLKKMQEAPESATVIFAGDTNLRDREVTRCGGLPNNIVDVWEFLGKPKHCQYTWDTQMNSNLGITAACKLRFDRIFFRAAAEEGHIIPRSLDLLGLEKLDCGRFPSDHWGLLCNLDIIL
The assay is described as follows: human TDP2 enzyme inhibitors, dose response, biochemical, epi absorbance, IC50 (AID 743297).

In assay [2] the target is T3, Sentrin-specific protease 7 (Homo sapiens, UniProt Q9BQF6).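 Note: Luminescence-based dose-response confirmation of ultra-high-throughput screening hits, measuring inhibition of SENP7.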
T3 sequence (Q9BQF6 whole entry): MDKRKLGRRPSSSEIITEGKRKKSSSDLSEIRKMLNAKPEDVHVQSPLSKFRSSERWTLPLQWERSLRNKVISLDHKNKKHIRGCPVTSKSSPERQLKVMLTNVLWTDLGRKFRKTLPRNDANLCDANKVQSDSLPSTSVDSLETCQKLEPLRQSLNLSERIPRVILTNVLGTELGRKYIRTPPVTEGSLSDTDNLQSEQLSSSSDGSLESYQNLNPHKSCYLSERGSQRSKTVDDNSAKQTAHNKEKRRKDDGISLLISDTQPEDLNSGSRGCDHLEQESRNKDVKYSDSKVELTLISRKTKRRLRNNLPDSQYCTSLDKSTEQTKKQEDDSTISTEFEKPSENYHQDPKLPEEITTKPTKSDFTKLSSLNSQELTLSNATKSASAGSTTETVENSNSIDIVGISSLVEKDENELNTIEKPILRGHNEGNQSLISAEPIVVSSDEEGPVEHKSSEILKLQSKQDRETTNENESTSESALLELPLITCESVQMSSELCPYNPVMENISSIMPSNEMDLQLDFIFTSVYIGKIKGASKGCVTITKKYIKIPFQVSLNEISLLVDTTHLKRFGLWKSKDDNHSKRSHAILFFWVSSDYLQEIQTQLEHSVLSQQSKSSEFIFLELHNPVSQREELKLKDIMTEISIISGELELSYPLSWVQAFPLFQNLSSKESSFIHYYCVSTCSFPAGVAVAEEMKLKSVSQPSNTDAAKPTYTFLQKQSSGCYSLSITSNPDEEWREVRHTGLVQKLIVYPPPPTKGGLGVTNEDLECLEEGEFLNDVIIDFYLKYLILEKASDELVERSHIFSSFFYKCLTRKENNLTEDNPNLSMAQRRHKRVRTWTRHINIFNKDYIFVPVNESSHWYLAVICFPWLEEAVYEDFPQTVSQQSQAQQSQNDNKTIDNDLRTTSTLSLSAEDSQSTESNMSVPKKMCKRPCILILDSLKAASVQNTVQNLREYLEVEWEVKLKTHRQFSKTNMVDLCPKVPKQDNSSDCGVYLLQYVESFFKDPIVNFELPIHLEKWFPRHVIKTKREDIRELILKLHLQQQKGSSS
The format is functional.

Assay [3] concerns the target T4, Sentrin-specific protease 8 (Homo sapiens, UniProt Q96LD8).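 Note: luminescence read-out of SENP8 inhibition, dose-response confirmation following an ultra-high-throughput screen.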
T4 sequence (Q96LD8 whole entry): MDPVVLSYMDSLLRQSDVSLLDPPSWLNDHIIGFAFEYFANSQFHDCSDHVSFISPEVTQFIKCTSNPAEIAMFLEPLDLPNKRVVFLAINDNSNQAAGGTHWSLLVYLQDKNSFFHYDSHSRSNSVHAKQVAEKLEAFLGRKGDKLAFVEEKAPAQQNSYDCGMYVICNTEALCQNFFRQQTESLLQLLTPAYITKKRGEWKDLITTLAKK
The assay is classed as functional.

The test system of another assay is INS1. The assay is described as follows: beta cell apoptosis inhibitors, cytokine rescue, dose response, luminescence, retest (AID 449756).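 Note: cell death triggered by IL-1 beta plus TNF-alpha plus IFN-gamma mixture; protective hits raise ATP signal compared with cytokine alone wells.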 The assay is classed as functional, cell-based. Conditions: Rattus norvegicus.

Data on 3 compounds can be found in ChEMBL document CHEMBL1201862, “PubChem BioAssay data set” (2004).

As a reminder, the IC50 is the concentration that inhibits the measured activity by half. A word on the AC50: it is the concentration at which the activity in the assay is half-maximal.

Molecules are shown by their SMILES. Activity calls are given as the source filed them. Cut-off read from the data, not from the text of the source, for most assays here: actives have a measured IC50 and inactives only a lower limit.

Consider `Nc1ccc(N2CCCCC2)c2nonc12`, for which the IC50 at Caspase-3 is 36.9 µM (active); in assay [1], 79.7 µM (inactive); in assay [2], 17.1 µM (active); in assay [3], 10.2 µM (active).
Turning to `COc1ccc(NC(=O)/C(Cl)=C(/Cl)[S+]([O-])Cc2ccccc2)cn1` (stereo not given), in the assay with INS1, the AC50 is 1.1 µM (active).
For the compound `Cc1ccc(S(=O)(=O)/N=C2\C=C(Nc3cccc(C(=O)O)c3)C(=O)c3ccccc32)c(C)c1`, the AC50 in the assay on INS1 was 6.82 µM (active). The IC50 was 11.2 µM (active) at Caspase-3, 2.58 µM (active) in assay [1], 3.3 µM (active) in assay [2] and 1.78 µM (active) in assay [3].
